Values after ≈ are worked out from the molar mass of the structure shown. Structures can show the parent of a compound that is named as a salt.
Legend:
E. coli TP = molecular target: T1, E. coli TP (Escherichia coli, UniProt P07650); assay: In vitro E. coli thymidine phosphorylase inhibition, spectrophotometric assay at 290 nm; assay type: biochemical; conditions: for inhibition at 15 µM: compound at 15 µM (maximum solubility); for inhibition at 25 µM: compound at 25 µM (maximum solubility); for inhibition at 30 µM: read-out: TP inhibition (%) at maximum solubility (30 µM)
T1 construct: purchased Sigma Aldrich T2807-1KU
Method: The adopted protocol is a modification of the original method developed by Khan[51]. TP activity and inhibition assays were based on the phosphorolysis of thymidine to thymine, this conversion results in a significant spectrophotometric decrease. At 290 nm and pH 7.4, thymidine has a higher extinction coefficient than thymine (Δε = −480 M^−1 cm^−1). The absorbance at 290 nm was measured every 2 min for 30 min in 96-well plates at 25 °C.
Thymidine was dissolved in buffer (3 mM). […] All experiments were conducted in triplicate.
The method reported by Khan et al.[51] has been adapted to a screening in 96-well plates (200 µL well, UV-Star® 96-well microplate, Greiner). Each well contained 160 µL of 50 mM KH2PO4 buffer (pH 7.4), 0.006 U of E. coli TP (T2807-1KU, Sigma Aldrich), and 20 µL of the tested compound solution. […] The decrease in absorbance due to conversion of thymidine to thymine was followed during 30 min (PowerWave HT Microplate Reader, Biotek) at 25 °C, with one measure every 2 min and a 30 s shaking before each measure.

[1] = Solubility in the incubation medium; conditions: for solubility: aqueous buffer, kinetic from dmso stock; for Solubility (in words): incubation medium
[2] = compound at 50 µM, 2.5% DMSO, average of three measurements

T1 sequence (P07650 whole entry): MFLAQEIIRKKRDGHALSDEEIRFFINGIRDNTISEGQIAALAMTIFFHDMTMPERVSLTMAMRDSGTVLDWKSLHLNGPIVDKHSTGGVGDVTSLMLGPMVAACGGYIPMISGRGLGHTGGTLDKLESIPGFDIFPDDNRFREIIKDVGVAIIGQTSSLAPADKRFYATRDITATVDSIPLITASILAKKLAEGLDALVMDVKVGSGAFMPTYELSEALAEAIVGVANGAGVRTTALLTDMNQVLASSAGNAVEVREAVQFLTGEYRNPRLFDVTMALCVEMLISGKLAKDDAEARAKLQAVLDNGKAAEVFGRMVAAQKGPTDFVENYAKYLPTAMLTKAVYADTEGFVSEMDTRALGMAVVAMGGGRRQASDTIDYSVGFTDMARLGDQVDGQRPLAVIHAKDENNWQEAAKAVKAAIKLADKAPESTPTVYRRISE

Compound	melting point	inhibition at 50 µM (E. coli TP; [2]) [%]	solubility [1] [µM]	other results
2-[4-(2,4-Dioxo-5-methyl-3,4-dihydropyrimidine-1(2H)-yl)hexyl]-6,7-methylenedioxy-2H-pyrrolo[3,4-b]quinoline-1,3-dione [Compound 13b]				TP inhibition (%) at 50 µM (E. coli TP; [2]): 0% at 50 µM
CN(C)CCCN1C(=O)c2cc3c(=O)[nH]c(=O)[nH]c3nc2C1=O (as salt: hydrochloride) [Compound 28h, 7-(3-(Dimethylamino)propyl)-1H-pyrrolo[3′,4′:5,6]pyrido [2,3-d]pyrimidine-2,4,6,8 (3H,7H)-tetraone, hydrochloride]	309 to 311 °C			
Cc1ccc2nc3[nH]c(=O)[nH]c(=O)c3cc2c1 [Compound 2a]		0		
Cc1ccc2cc3c(=O)[nH]c(=O)[nH]c3nc2c1 [Compound 2b]		0		
Cc1cccc2cc3c(=O)[nH]c(=O)[nH]c3nc12 [Compound 2c]		14		
O=c1[nH]c(=O)c2cc3ccc(Oc4ccccc4)cc3nc2[nH]1 [Compound 2e, 8-Phenoxypyrimido[4,5-b]quinoline-2,4(1H,3H)-dione]	334 to 336 °C (dec.)	30	50 (≈ 15.3 µg/mL)	
O=c1[nH]c(=O)c2cc3ccc(OCc4ccccc4)cc3nc2[nH]1 [Compound 2f]		0	50 (≈ 16 µg/mL)	
COc1cc2nc3[nH]c(=O)[nH]c(=O)c3cc2c(OC)c1OC [Compound 2h]			15 (≈ 4.55 µg/mL)	inhibition at 15 µM (E. coli TP; 2.5% DMSO): 0%; Solubility (in words) [1]: sparingly soluble
O=c1[nH]c(=O)c2cc3ccc(Cc4ccccc4)cc3nc2[nH]1 [Compound 2i, 8-Benzylpyrimido[4,5-b]quinoline-2,4(1H,3H)-dione]	297 to 299 °C (dec.)	30	50 (≈ 15.2 µg/mL)	
O=c1[nH]c(=O)c2cc3ccc(Cl)cc3nc2[nH]1 [Compound 2j]		0	50 (≈ 12.4 µg/mL)	
O=c1[nH]c(=O)c2cc3ccc(C(F)(F)F)cc3nc2[nH]1 [Compound 2k]		0		
O=c1[nH]c(=O)c2cc3cc(Cl)c(Cl)cc3nc2[nH]1 [Compound 2l, 7,8-Dichloropyrimido[4,5-b]quinoline-2,4(1H,3H)-dione]	> 360 °C	71	> 50	IC50 (E. coli TP; 300 µM thymidine, pH 7.4, 25 °C): 42 µM
O=c1[nH]c(=O)c2cc3c(ccc4ccccc43)nc2[nH]1 [Compound 2m]		29		
O=c1[nH]c(=O)c2cc3ccc4ccccc4c3nc2[nH]1 [Compound 2n, Benzo[h]pyrimido[4,5-b]quinoline-8,10(9H,11H)-dione)]	326 to 328 °C		15 (≈ 3.95 µg/mL)	inhibition at 15 µM (E. coli TP; 2.5% DMSO): 0%; Solubility (in words) [1]: less soluble
O=c1[nH]c(=O)c2cc3ccc4cc5ccccc5cc4c3nc2[nH]1 [Compound 2o, Naphto[2,3-h]pyrimido[4,5-b]quinoline-2,4(1H,3H)-dione]	> 360 °C		25 (≈ 7.83 µg/mL)	inhibition at 25 µM (E. coli TP; 2.5% DMSO): 0%; Solubility (in words) [1]: less soluble
Cc1c2cc3c(cc2nc2[nH]c(=O)[nH]c(=O)c12)OCO3 [Compound 2q]		0		
COc1cc(-c2c3cc4c(cc3nc3[nH]c(=O)[nH]c(=O)c23)OCO4)cc(OC)c1OC [Compound 2r]			25 (≈ 10.6 µg/mL)	inhibition at 25 µM (E. coli TP; 2.5% DMSO): 0%

Compound	melting point	inhibition at 50 µM (E. coli TP; [2]) [%]	solubility [1] [µM]	other results
CN(C)c1c2cc3c(cc2nc2[nH]c(=O)[nH]c(=O)c12)OCO3 [Compound 2s, 5-Dimethylamino-7,8-methylenedioxypyrimido[4,5-b]quinoline-2,4(1H,3H)-dione]	348 °C		15 (≈ 4.5 µg/mL)	inhibition at 15 µM (E. coli TP; 2.5% DMSO): 0%
O=c1[nH]c(=O)c2cc[nH]c2[nH]1 [Compound 7-DX, 7-Deazaxanthine, reference compound]		60		
Cc1cn(CCCCN2C(=O)c3cc4cc5c(cc4nc3C2=O)OCO5)c(=O)[nH]c1=O [Compound 13a, 2-[4-(2,4-Dioxo-5-methyl-3,4-dihydropyrimidine-1(2H)-yl)butyl]-6,7-methylenedioxy-2H-pyrrolo[3,4-b]quinoline-1,3-dione]	302 °C	25		
O=C1c2cc3cc4c(cc3nc2C(=O)N1CCCCn1cc(Br)c(=O)[nH]c1=O)OCO4 [Compound 16a, 2-[4-(5-Bromo-2,4-dioxo-3,4-dihydropyrimidine-1(2H)-yl)butyl]-6,7-methylenedioxy-2H-pyrrolo[3,4-b]quinoline-1,3-dione]	276 °C		25 (≈ 12.2 µg/mL)	inhibition at 25 µM (E. coli TP; 2.5% DMSO): 30%; Solubility (in words) [1]: less soluble
O=C1c2cc3cc4c(cc3nc2C(=O)N1CCCCCCn1cc(Br)c(=O)[nH]c1=O)OCO4 [Compound 16b, 2-[6-(5-Bromo-2,4-dioxo-3,4-dihydropyrimidine-1(2H)-yl)hexyl]-6,7-methylenedioxy-2H-pyrrolo[3,4-b]quinoline-1,3-dione]	282 to 283 °C		12.5 (≈ 6.44 µg/mL)	inhibition at 12.5 µM (E. coli TP; compound at 12.5 µM (maximum solubility), 2.5% DMSO): 30%; Solubility (in words) [1]: less soluble
CCC(CCCn1c(=O)c(Br)cn(C(CC)CCCN2C(=O)c3cc4cc5c(cc4nc3C2=O)OCO5)c1=O)n1cc(Br)c(=O)[nH]c1=O (centres unmarked) [Compound 17, 2-[4-[5-Bromo-3-[4-(5-bromo-2,4-dioxo-3,4-dihydropyrimidine-1(2H)-yl)hexyl]-2,4-dioxo-3,4-dihydropyrimidine-1(2H)-yl]hexyl]-6,7-méthylènedioxy-2H-pyrrolo[3,4-b]quinoline-1,3-dione]	144 to 148 °C			
O=C1c2cc3cc4c(cc3nc2C(=O)N1Cc1cc(=O)[nH]c(=O)[nH]1)OCO4 [Compound 22, 2-[(2,6-Dioxo-1,2,3,6-tetrahydropyrimidin-4-yl)methyl]-6,7-methylenedioxy-1H-pyrrolo[3,4-b]quinoline-1,3(2H)-dione]	407 to 409 °C (dec.)		15 (≈ 5.49 µg/mL)	inhibition at 15 µM (E. coli TP; 2.5% DMSO): 25%; Solubility (in words) [1]: less soluble
O=C1c2cc3cc4c(cc3nc2C(=O)N1Cc1[nH]c(=O)[nH]c(=O)c1Cl)OCO4 [Compound 23a, 2-[(5-Chloro-2,6-dioxo-1,2,3,6-tetrahydropyrimidin-4-yl)methyl]-6,7-methylenedioxy-1H-pyrrolo[3,4-b]quinoline-1,3(2H)-dione]	352 to 354 °C (dec.)	0		
O=C1c2cc3cc4c(cc3nc2C(=O)N1Cc1[nH]c(=O)[nH]c(=O)c1I)OCO4 [Compound 23c, 2-[(5-Iodo-2,6-dioxo-1,2,3,6-tetrahydropyrimidin-4-yl)methyl]-6,7-methylenedioxy-1H-pyrrolo[3,4-b]quinoline-1,3(2H)-dione]	365 to 367 °C (dec.)	0		
O=C1c2cc3cc4c(cc3nc2C(=O)N1Cc1ccccc1)OCO4 [Compound 24, 6,7-Methylenedioxy-2-benzylpyrrolo[3,4-b]quinoline-1,3-dione]	191 to 193 °C	20		
O=C1NC(=O)c2nc3[nH]c(=O)[nH]c(=O)c3cc21 [Compound 27]		0		
COc1ccc(CN2C(=O)c3cc4c(=O)[nH]c(=O)[nH]c4nc3C2=O)c(OC)c1 [Compound 28b]		0		
O=C1c2cc3c(=O)[nH]c(=O)[nH]c3nc2C(=O)N1Cc1ccc(Cl)cc1Cl [Compound 28d]			30 (≈ 11.7 µg/mL)	inhibition at 30 µM (E. coli TP): 0%
O=C1c2cc3c(=O)[nH]c(=O)[nH]c3nc2C(=O)N1CCc1ccccc1 [Compound 28e, 7-Phenylethyl-1H-pyrrolo[3′,4′:5,6]pyrido[2,3-d]pyrimidine-2,4,6,8(3H,7H)-tetraone]	359 to 361 °C	0		
O=C1c2cc3c(=O)[nH]c(=O)[nH]c3nc2C(=O)N1Cc1cccnc1 [Compound 28f, 7-(Pyridin-3-ylmethyl)-1H-pyrrolo[3′,4′:5,6]pyrido[2,3-d]pyrimidine-2,4,6,8(3H,7H)-tetraone]	> 360 °C	0		
O=C1c2cc3c(=O)[nH]c(=O)[nH]c3nc2C(=O)N1CC1CCCCC1 [Compound 28g]			30 (≈ 9.85 µg/mL)	inhibition at 30 µM (E. coli TP): 0%
CN(C)CCCN1C(=O)c2cc3c(=O)[nH]c(=O)[nH]c3nc2C1=O [Compound 28h, 7-(3-(Dimethylamino)propyl)-1H-pyrrolo[3′,4′:5,6]pyrido [2,3-d]pyrimidine-2,4,6,8 (3H,7H)-tetraone, hydrochloride]		0		
